By EC50 is commonly meant the midpoint of the concentration-response curve.

Assay [1] deals with T1, human cloned CHRM4 receptor (M4_CHO cells) (Homo sapiens, UniProt P08173).
T1 construct: expressed in transfected cells; host or cells: CHO-K1
T1 sequence (P08173 1-479): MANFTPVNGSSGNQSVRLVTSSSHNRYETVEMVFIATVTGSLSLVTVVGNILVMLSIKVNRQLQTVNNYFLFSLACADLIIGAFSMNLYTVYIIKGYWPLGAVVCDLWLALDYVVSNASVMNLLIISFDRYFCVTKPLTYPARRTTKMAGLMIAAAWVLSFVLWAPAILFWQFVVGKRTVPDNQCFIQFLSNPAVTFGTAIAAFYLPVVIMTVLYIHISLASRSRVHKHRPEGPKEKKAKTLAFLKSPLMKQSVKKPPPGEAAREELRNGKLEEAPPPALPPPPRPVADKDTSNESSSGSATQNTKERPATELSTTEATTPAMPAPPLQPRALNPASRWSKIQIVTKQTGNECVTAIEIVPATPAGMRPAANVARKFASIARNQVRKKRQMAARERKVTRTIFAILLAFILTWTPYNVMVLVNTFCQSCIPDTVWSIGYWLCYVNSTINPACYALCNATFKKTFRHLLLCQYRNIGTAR
The assay can be described thus: CHRM4 Ca++ Flux Assay (agonist mode, FDSS 7000EX). It is filed as cell-based. The following applies: for Emax: Percent Activity, read-out: M4 FDSS PA; for EC50: geometric mean if tested more than once, read-out: M4 FDSS EC50. A digest of the protocol:
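Agonist-mode response was expressed as percent of the Carbachol EC100 and fitted with four-parameter nonlinear regression over an 11-point triplicate dose series. Intracellular Ca++ was tracked for 3 min by fluorescent dye in CHO-K1 cells stably expressing human CHRM4. Cells were preincubated 60 min with 20 μM ATP in buffer containing 2.5 mM probenecid.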

For assay [2], the target named is T2, Cloned human M1 receptor (CHRM1) stably expressed in HEK293 cells (Homo sapiens, UniProt P11229).
T2 construct: expressed in transfected cells; host or cells: HEK293
T2 sequence (P11229 1-460): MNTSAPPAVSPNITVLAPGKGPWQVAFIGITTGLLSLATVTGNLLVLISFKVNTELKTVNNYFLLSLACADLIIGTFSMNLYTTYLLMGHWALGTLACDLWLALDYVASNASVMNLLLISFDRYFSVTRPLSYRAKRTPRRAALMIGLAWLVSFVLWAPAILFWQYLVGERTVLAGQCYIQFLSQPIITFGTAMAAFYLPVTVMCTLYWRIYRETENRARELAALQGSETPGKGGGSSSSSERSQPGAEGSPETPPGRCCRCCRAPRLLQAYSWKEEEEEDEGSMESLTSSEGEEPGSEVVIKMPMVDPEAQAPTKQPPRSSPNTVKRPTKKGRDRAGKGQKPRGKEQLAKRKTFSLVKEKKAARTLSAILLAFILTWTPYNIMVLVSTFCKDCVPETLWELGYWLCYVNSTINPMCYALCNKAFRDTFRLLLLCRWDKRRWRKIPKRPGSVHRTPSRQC
Nature of the assay: CHRM1 Ca++ Flux Assay (agonist mode, FDSS 7000EX). The assay is classed as cell-based. The following applies: for Emax: HEK293, Percent Activity, read-out: M1 FDSS PA; for EC50: geometric mean if tested more than once. An outline of the steps:
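Compounds tested as agonists at 11 concentrations in triplicate, with calcium traces captured over 3 minutes. Cells were HEK293 with stable human CHRM1 expression, plated overnight at 25K/well and loaded with calcium dye. Responses normalized to carbachol EC100 and fitted by four-parameter nonlinear regression.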

Take `Cc1nccnc1N1CC2(CC[C@@H](N3CCC(c4ccccc4OCC(C)(C)O)CC3)C2)C1` [Example 5T, (R)-2-methyl-1-(2-(1-(2-(3-methylpyrazin-2-yl)-2-azaspiro[3.4]octan-6-yl)piperidin-4-yl)phenoxy)propan-2-ol]: in assay [1], the Emax was determined as 25% and the EC50 is 63 nM. Moreover, in assay [2], the Emax worked out at 34% and the EC50 was 537 nM.
For `CC(C)(O)COc1ccccc1C1CCN([C@@H]2CCC3(C2)CN(c2ncncn2)C3)CC1` [Example 5U, (R)-1-(2-(1-(2-(1,3,5-triazin-2-yl)-2-azaspiro[3.4]octan-6-yl)piperidin-4-yl)phenoxy)-2-methylpropan-2-ol], in assay [1], the Emax is 49% and the EC50 came to 28 nM. Further, in assay [2], the Emax turned out to be 2% and the EC50 was determined as 672 nM.
The corresponding values for `COc1ccc(F)cc1C1CCN([C@@H]2CCC3(C2)CN(c2ccnnc2)C3)CC1` [Example 5V, (R)-6-(4-(5-fluoro-2-methoxyphenyl)piperidin-1-yl)-2-(pyridazin-4-yl)-2-azaspiro[3.4]octane] are 59%, 20 nM, 60% and 215 nM.
The corresponding values for `Fc1cccc(C2CCN([C@@H]3CCC4(C3)CN(c3cncnc3)C4)CC2)c1OC1COC1` [Example 5W, (R)-6-(4-(3-fluoro-2-(oxetan-3-yloxy)phenyl)piperidin-1-yl)-2-(pyrimidin-5-yl)-2-azaspiro[3.4]octane] are 90%, 1 nM, 60% and 52 nM.
`COCCOc1ccccc1C1CCN([C@@H]2CCC3(C2)CN(c2cccnn2)C3)CC1` [Example 5X, (R)-6-(4-(2-(2-methoxyethoxy)phenyl)piperidin-1-yl)-2-(pyridazin-3-yl)-2-azaspiro[3.4]octane]: in assay [1], the Emax was 24% and the EC50 came to 54 nM. Also, in assay [2], the Emax was determined as 0% and the EC50 is above 25000 nM.
The corresponding values for `COCCOc1ccccc1C1CCN([C@@H]2CCC3(C2)CN(c2cnc(C)cn2)C3)CC1` [Example 5Y, (R)-6-(4-(2-(2-methoxyethoxy)phenyl)piperidin-1-yl)-2-(5-methylpyrazin-2-yl)-2-azaspiro[3.4]octane] are 0%, above 25000 nM, 0% and above 25000 nM.
On to `COCCOc1ccccc1C1CCN([C@@H]2CCC3(C2)CN(c2ccnnc2)C3)CC1` [Example 5Z, (R)-6-(4-(2-(2-methoxyethoxy)phenyl)piperidin-1-yl)-2-(pyridazin-4-yl)-2-azaspiro[3.4]octane], for which, in assay [1], the Emax came to 44% and the EC50 amounted to 42 nM. For the same compound, in assay [2], the Emax is 21% and the EC50 was found to be 413 nM.
The corresponding values for `O=C(C1COC1)N1CC2(CC[C@@H](N3CCC(c4ccc(F)cc4OC(F)F)CC3)C2)C1` [Example 6B, (R)-(6-(4-(2-(difluoromethoxy)-4-fluorophenyl)piperidin-1-yl)-2-azaspiro[3.4]octan-2-yl)(oxetan-3-yl)methanone] are 50%, 5 nM, 90% and 12 nM.
Turning to `CC(C)Oc1cc(F)ccc1C1CCN([C@@H]2CCC3(C2)CN(C(=O)C2COC2)C3)CC1` [Example 6D, (R)-(6-(4-(4-fluoro-2-isopropoxyphenyl)piperidin-1-yl)-2-azaspiro[3.4]octan-2-yl)(oxetan-3-yl)methanone], in assay [1], the Emax amounted to 53% and the EC50 was 11 nM. Besides, in assay [2], the Emax is 18% and the response was half-maximal at 18 nM (EC50).
In the case of `O=C(N1CC2(CC[C@@H](N3CCC(c4ccccc4C4CCOCC4)CC3)C2)C1)C1(F)CC1` [Example 6E, (R)-(1-fluorocyclopropyl)(6-(4-(2-(tetrahydro-2H-pyran-4-yl)phenyl)piperidin-1-yl)-2-azaspiro[3.4]octan-2-yl)methanone], the figures for the Emax in assay [1] and in assay [2] were 65% and 67%, respectively. The values for the EC50 in assay [1] and in assay [2] were 3 nM and 120 nM, respectively.
For `O=C(C1COC1)N1CC2(CC[C@@H](N3CCC(c4ccccc4OC4CC4)CC3)C2)C1` [Example 7A, (R)-(6-(4-(2-cyclopropoxyphenyl)piperidin-1-yl)-2-azaspiro[3.4]octan-2-yl)(oxetan-3-yl)methanone], in that order: 71%, 75%, 4 nM and 9 nM.
The corresponding values for `CC(C)(F)COc1ccccc1C1CCN([C@@H]2CCC3(C2)CN(C(=O)C2COC2)C3)CC1` [Example 7B, (R)-(6-(4-(2-(2-fluoro-2-methylpropoxy)phenyl)piperidin-1-yl)-2-azaspiro[3.4]octan-2-yl)(oxetan-3-yl)methanone] are 44%, 78%, 4 nM and 15 nM.
For `O=C(C1COC1)N1CC2(CC[C@@H](N3CCC(c4ccccc4Oc4nccs4)CC3)C2)C1` [Example 7C, (R)-oxetan-3-yl(6-(4-(2-(thiazol-2-yloxy)phenyl)piperidin-1-yl)-2-azaspiro[3.4]octan-2-yl)methanone], in that order: 39%, 87%, 4 nM and 11 nM.
Consider `CC(C)(O)CCOc1ccccc1C1CCN([C@@H]2CCC3(C2)CN(C(=O)C2COC2)C3)CC1` [Example 7CC, (R)-(6-(4-(2-(3-hydroxy-3-methylbutoxy)phenyl)piperidin-1-yl)-2-azaspiro[3.4]octan-2-yl)(oxetan-3-yl)methanone], for which, in assay [1], the Emax was determined as 46% and the EC50 stood at 5 nM. Moreover, in assay [2], the Emax was 94% and the EC50 was 6 nM.
`N#CCCOc1ccccc1C1CCN([C@@H]2CCC3(C2)CN(C(=O)C2COC2)C3)CC1` [Example 7D, (R)-3-(2-(1-(2-(oxetane-3-carbonyl)-2-azaspiro[3.4]octan-6-yl)piperidin-4-yl)phenoxy)propanenitrile]: in assay [1], the Emax is 57% and the EC50 was found to be 2 nM. Further, in assay [2], the Emax is 114% and the EC50 was found to be 3 nM.
The corresponding values for `O=C(C1COC1)N1CC2(CC[C@@H](N3CCC(c4ccccc4OCCOC(F)(F)F)CC3)C2)C1` [Example 7DD, (R)-oxetan-3-yl(6-(4-(2-(2-(trifluoromethoxy)ethoxy)phenyl)piperidin-1-yl)-2-azaspiro[3.4]octan-2-yl)methanone] are 42%, 27 nM, 86% and 116 nM.
For `O=C(C1COC1)N1CC2(CC[C@@H](N3CCC(c4ccccc4OC[C@@H]4CCOC4)CC3)C2)C1` [Example 7E, oxetan-3-yl((R)-6-(4-(2-(((R)-tetrahydrofuran-3-yl)methoxy)phenyl)piperidin-1-yl)-2-azaspiro[3.4]octan-2-yl)methanone], in that order: 59%, 3 nM, 101% and 46 nM.
Consider `O=C(C1COC1)N1CC2(CC[C@@H](N3CCC(c4ccccc4OCCOC4COC4)CC3)C2)C1` [Example 7EE, (R)-oxetan-3-yl(6-(4-(2-(2-(oxetan-3-yloxy)ethoxy)phenyl)piperidin-1-yl)-2-azaspiro[3.4]octan-2-yl)methanone], for which, in assay [1], the Emax stood at 61% and the EC50 amounted to 6 nM. Moreover, in assay [2], the Emax came to 98% and the response was half-maximal at 73 nM (EC50).
Turning to `CC(C)COc1ccccc1C1CCN([C@@H]2CCC3(C2)CN(C(=O)C2COC2)C3)CC1` [Example 7F, (R)-(6-(4-(2-isobutoxyphenyl)piperidin-1-yl)-2-azaspiro[3.4]octan-2-yl)(oxetan-3-yl)methanone], in assay [1], the Emax was determined as 60% and the EC50 turned out to be 14 nM. In assay [2], the Emax worked out at 75% and the 50% effective concentration (EC50) stood at 42 nM.

The record behind these values is US12122761B2, “2-azaspiro[3.4]octane derivatives as M4 agonists” (NOVARTIS AG, priority 2019, dated 2024).
